This is an account of results in patent US9944666B2, “Compounds that are S1P modulating agents and/or ATX modulating agents” (BIOGEN MA INC., priority 2012, dated 2018).

SMILES strings stand for the structures. Bounds are passed on as bounds.

The target of this test is T1, Human ATX protein (Homo sapiens, UniProt Q13822).
T1 construct: made in house
The experiment in a line: ATX biochemical FRET assay with FS-3 substrate. The conditions noted are these: FS-3 2 μM, ATX 1.0 μg/mL, room temperature 2 hours, fluorescence 485/538 nm. The gist of the method:
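Purified human ATX (1.0 μg/mL final) preincubated with compound 30 min at room temperature in Tris pH 7.4 buffer with NaCl, KCl, CaCl2, MgCl2 and 1 mg/mL fatty acid-free BSA. FS-3 added to 2 μM final; 2 h at room temperature in the dark, fluorescence at ex 485/em 538 nm.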
Consider `O=C(O)C1CC2CCC(C1)N2C(=O)c1ccc2c(C(F)(F)F)c(N[C@H]3CC[C@@H](C(F)(F)F)CC3)ccc2c1` (stereo partly drawn) [Example 190, 8-(5-(trifluoromethyl)-6-((cis-4-(trifluoromethyl)cyclohexyl)amino)-2-naphthoyl)-8-azabicyclo[3.2.1]octane-3-carboxylic acid], for which the IC50 (usually the point on the concentration scale where inhibition reaches its midpoint) is ≤ 0.1 µM.

`CC(C)(C)[C@H]1CC[C@H](Nc2ncc3cc(C(=O)N4C5CCCC4CC(C(=O)O)C5)ccc3n2)CC1` (stereo partly drawn) [Example 191, 9-(2-((trans-4-(tert-butyl)cyclohexyl)amino)quinazoline-6-carbonyl)-9-azabicyclo[3.3.1]nonane-3-carboxylic acid]: the IC50 is ≤ 0.1 µM.

As for `CC(C)(C)[C@H]1CC[C@H](Nc2cc3ccc(C(=O)N4C5CCC4CC(C(=O)O)C5)cc3cn2)CC1` (stereo partly drawn) [Example 194, 8-(3-((trans-4-(tert-butyl)cyclohexyl)amino)isoquinoline-7-carbonyl)-8-azabicyclo[3.2.1]octane-3-carboxylic acid], the IC50 is ≤ 0.1 µM.

`O=C(O)C1CC2CCCC(C1)N2Cc1cc2ccc(O[C@H]3CC[C@@H](C(F)(F)F)CC3)c(C(F)(F)F)c2cn1` (stereo partly drawn) [Example 197, 9-((8-(trifluoromethyl)-7-((cis-4-(trifluoromethyl)cyclohexyl)oxy)isoquinolin-3-yl)methyl)-9-azabicyclo[3.3.1]nonane-3-carboxylic acid]: the IC50 was ≤ 0.5 µM.

As to `CC[C@H]1CC[C@@H](Oc2ccc3nc(NC4C5CCCC4CC(C(=O)O)C5)ccc3c2C(F)(F)F)CC1` (stereo partly drawn) [Example 198, 9-((6-((cis-4-ethylcyclohexyl)oxy)-5-(trifluoromethyl)quinolin-2-yl)amino)bicyclo[3.3.1]nonane-3-carboxylic acid], the IC50 was ≤ 0.1 µM.

Take `CC[C@H]1CC[C@@H](Oc2ccc3cc(CN4C5CCCC4CC(C(=O)O)C5)ccc3c2C#N)CC1` (stereo partly drawn) [Example 199, 9-((5-cyano-6-((cis-4-ethylcyclohexyl)oxy)naphthalen-2-yl)methyl)-9-azabicyclo[3.3.1]nonane-3-carboxylic acid]: the IC50 is ≤ 0.1 µM.

Turning to `CC[C@H]1CC[C@@H](Oc2ccc3cc(CN4C5CCC4CC(C(=O)O)C5)ccc3c2C#N)CC1` (stereo partly drawn) [Example 200, 8-((5-cyano-6-((cis-4-ethylcyclohexyl)oxy)naphthalen-2-yl)methyl)-8-azabicyclo[3.2.1]octane-3-carboxylic acid], the IC50 is ≤ 0.5 µM.

In the case of `O=C(O)C1CC2CCCC(C1)N2C(=O)c1ccc2c(Cl)c(O[C@H]3CC[C@@H](C(F)(F)F)CC3)ccc2c1` (stereo partly drawn) [Example 201, 9-(5-chloro-6-((cis-4-(trifluoromethyl)cyclohexyl)oxy)-2-naphthoyl)-9-azabicyclo[3.3.1]nonane-3-carboxylic acid], the IC50 was ≤ 0.25 µM.

Take `CCC(c1ccc2c(Cl)c(O[C@H]3CC[C@@H](C(F)(F)F)CC3)ccc2c1)N1C2CCC1CC(C(=O)O)C2` (stereo partly drawn) [Example 202, 8-(1-(5-chloro-6-((cis-4-(trifluoromethyl)cyclohexyl)oxy)naphthalen-2-yl)propyl)-8-azabicyclo[3.2.1]octane-3-carboxylic acid]: the IC50 was ≤ 0.1 µM.

`C[C@H]1CC[C@@H](Oc2ccc3cc(C(=O)N4C5CCC4CC(C(=O)O)C5)ccc3c2Cl)CC1` (stereo partly drawn) [Example 203, 8-(5-chloro-6-((cis-4-methylcyclohexyl)oxy)-2-naphthoyl)-8-azabicyclo[3.2.1]octane-3-carboxylic acid]: the half-maximal inhibitory concentration (IC50) is ≤ 0.25 µM.

Regarding `CCC(c1ccc2c(C(F)(F)F)c(O[C@H]3CC[C@@H](C(C)(F)F)CC3)ccc2c1)N1C2CCC1CC(C(=O)O)C2` (stereo partly drawn) [Example 204, 8-(1-(6-((cis-4-(1,1-difluoroethyl)cyclohexyl)oxy)-5-(trifluoromethyl)naphthalen-2-yl)propyl)-8-azabicyclo[3.2.1]octane-3-carboxylic acid], the IC50 is ≤ 0.1 µM.

As to `CC(c1ccc2c(Cl)c(O[C@H]3CC[C@@H](C)CC3)ccc2c1)N1C2CCC1CC(C(=O)O)C2` (stereo partly drawn) [Example 205, 8-(1-(5-chloro-6-((cis-4-methylcyclohexyl)oxy)naphthalen-2-yl)ethyl)-8-azabicyclo[3.2.1]octane-3-carboxylic acid], the IC50 is ≤ 0.25 µM.
